Read-outs that look alike come from different tables or passages of the source.
What was measured:
[1] = animal models of RA, UC, and neuron degeneration; cited from earlier work
PAD1 [2] = target: T1, PAD1 (Homo sapiens, UniProt Q9ULC6); conditions: read-out: IC50 PAD1; first generation inhibitors; cited from earlier work
T1 sequence (Q9ULC6 1-663): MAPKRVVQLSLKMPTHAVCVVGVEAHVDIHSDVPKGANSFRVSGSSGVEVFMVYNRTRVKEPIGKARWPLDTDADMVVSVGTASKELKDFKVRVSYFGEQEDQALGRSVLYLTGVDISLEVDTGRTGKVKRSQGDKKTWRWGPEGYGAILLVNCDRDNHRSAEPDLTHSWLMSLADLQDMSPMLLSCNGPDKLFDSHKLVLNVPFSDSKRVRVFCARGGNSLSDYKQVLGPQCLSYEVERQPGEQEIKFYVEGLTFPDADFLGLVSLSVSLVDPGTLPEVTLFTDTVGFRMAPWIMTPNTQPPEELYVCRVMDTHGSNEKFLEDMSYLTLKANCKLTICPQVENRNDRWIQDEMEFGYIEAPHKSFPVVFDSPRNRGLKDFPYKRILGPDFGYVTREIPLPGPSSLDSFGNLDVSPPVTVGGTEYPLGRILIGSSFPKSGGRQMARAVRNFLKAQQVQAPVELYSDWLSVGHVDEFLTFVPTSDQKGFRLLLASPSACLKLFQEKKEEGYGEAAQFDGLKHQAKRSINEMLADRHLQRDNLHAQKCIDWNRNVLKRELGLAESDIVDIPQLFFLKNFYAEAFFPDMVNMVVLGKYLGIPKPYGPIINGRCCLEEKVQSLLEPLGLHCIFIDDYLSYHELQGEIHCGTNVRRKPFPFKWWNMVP

PAD3 [3] = target: T2, PAD3 (Homo sapiens, UniProt Q9ULW8); conditions: read-out: IC50 PAD3; first generation inhibitors; cited from earlier work
T2 sequence (Q9ULW8 1-664): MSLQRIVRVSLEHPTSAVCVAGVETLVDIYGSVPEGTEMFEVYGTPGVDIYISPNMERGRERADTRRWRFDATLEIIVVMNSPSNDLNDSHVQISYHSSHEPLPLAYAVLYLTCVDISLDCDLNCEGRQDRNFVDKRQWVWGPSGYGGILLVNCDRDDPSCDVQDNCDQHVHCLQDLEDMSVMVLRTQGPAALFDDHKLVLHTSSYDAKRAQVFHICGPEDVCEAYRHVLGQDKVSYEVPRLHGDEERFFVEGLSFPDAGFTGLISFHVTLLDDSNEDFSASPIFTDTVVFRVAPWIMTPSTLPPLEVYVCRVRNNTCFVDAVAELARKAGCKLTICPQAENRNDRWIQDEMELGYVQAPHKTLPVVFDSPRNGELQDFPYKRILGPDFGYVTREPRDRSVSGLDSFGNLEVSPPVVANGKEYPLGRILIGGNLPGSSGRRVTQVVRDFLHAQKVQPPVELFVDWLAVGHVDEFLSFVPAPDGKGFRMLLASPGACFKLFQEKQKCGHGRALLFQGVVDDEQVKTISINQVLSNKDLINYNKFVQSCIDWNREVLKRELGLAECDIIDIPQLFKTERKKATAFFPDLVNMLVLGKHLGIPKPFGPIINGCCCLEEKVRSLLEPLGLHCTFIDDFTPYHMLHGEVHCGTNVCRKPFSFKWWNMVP

PAD1 [4] = target: T1, PAD1; experiment: PAD1 inhibition, IC50 determination; type: biochemical; conditions: read-out: IC50 PAD1
PAD2 [5] = target: T3, PAD2 (Homo sapiens, UniProt Q9Y2J8); experiment: PAD2 inhibition, IC50 determination; type: biochemical; conditions: read-out: IC50 PAD2
PAD3 [6] = target: T2, PAD3; experiment: PAD3 inhibition, IC50 determination; type: biochemical; conditions: read-out: IC50 PAD3
PAD4 [7] = target: T4, PAD4 (Homo sapiens, UniProt Q9UM07); experiment: Dialysis of PAD4•inactivator complex; type: biochemical; conditions: excess inhibitor, 20 h of dialysis
PAD4 [8] = target: T4, PAD4; experiment: Substrate protection experiments; type: biochemical; conditions: two different concentrations of substrate
PAD4 Q346A mutant = experiment: IC50 with PAD4 Q346A mutant; conditions: relative to wild type PAD4
PAD4 R374Q mutant = experiment: IC50 with PAD4 R374Q mutant; conditions: relative to wild type PAD4
PAD4 R639Q mutant = experiment: IC50 with PAD4 R639Q mutant; conditions: relative to wild type PAD4
PAD4 [9] = target: T4, PAD4; experiment: PAD4 inhibition, IC50 determination
PAD1 [10] = target: T1, PAD1; experiment: Substrate activity with PAD1
PAD2 [11] = target: T3, PAD2; experiment: Substrate activity with PAD2
PAD3 [12] = target: T2, PAD3; experiment: Substrate activity with PAD3
PAD4 [13] = target: T4, PAD4; experiment: Substrate activity with PAD4

T4 sequence (Q9UM07 whole entry): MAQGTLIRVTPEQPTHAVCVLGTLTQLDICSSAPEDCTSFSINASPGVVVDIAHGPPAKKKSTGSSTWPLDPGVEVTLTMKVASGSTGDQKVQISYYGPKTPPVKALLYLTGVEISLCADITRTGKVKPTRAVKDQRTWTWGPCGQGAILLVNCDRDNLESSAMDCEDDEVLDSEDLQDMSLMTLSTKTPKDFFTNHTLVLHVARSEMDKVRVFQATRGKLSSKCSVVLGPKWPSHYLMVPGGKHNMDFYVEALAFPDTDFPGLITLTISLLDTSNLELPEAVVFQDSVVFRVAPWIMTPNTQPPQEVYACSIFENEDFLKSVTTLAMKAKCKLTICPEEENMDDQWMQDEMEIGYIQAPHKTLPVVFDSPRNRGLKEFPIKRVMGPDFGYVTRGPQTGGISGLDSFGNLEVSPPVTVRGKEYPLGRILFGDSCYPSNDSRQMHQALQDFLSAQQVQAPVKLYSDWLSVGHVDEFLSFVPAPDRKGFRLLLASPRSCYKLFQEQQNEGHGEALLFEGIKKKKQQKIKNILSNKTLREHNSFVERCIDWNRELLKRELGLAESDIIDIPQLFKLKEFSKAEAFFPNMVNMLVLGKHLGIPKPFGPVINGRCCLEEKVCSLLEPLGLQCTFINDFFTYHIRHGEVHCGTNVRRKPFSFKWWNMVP
T3 sequence (Q9Y2J8 whole entry): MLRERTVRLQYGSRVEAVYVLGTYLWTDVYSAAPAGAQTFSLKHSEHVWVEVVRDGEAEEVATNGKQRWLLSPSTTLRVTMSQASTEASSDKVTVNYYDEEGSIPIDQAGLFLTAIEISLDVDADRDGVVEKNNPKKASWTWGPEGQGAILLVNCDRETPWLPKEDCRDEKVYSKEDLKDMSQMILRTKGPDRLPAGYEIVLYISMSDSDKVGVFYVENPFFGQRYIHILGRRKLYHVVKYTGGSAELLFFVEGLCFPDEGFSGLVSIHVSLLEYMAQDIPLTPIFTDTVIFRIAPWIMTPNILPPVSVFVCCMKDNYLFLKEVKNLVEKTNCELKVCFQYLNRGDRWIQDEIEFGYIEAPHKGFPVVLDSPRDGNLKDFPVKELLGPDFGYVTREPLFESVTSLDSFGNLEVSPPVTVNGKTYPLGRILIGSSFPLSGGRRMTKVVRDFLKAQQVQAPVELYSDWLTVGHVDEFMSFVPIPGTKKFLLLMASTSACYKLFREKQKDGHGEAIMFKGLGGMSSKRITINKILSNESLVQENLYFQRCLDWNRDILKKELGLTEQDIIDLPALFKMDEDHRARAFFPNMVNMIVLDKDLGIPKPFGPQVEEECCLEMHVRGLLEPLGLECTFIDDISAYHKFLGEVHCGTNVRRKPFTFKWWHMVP

N=C(CCl)NCCC[C@H](NC(=O)c1ccccc1)C(N)=O [Cl-amidine, N-alpha-benzoyl-N5-(2-chloro-1-iminoethyl)-L-ornithine amide]
effect on disease severity in animal models [1]: reduces disease severity

NC(=O)[C@H](CCCN=C(N)CF)NC(=O)c1ccccc1 [F-amidine]
IC50 (PAD1 [2]): 30 ± 1.3 µM
IC50 (PAD3 [3]): ≥ 350 µM

CC(=O)N[C@H](C(=O)N[C@@H](CC(=O)O)C(=O)N[C@@H](CCCN=C(N)CF)C(N)=O)[C@@H](C)O [TDFA, Thr-Asp-F-amidine]
IC50 (PAD1 [4]): 8.5 ± 0.8 µM
IC50 (PAD2 [5]): 71 ± 4.4 µM
IC50 (PAD3 [6]): 26 ± 7.4 µM
recovery of PAD4 activity after dialysis (PAD4 [7]): no recovery of activity
rates of inactivation at the higher concentration of substrate (PAD4 [8]): considerably lower
increase of IC50 with Q346A mutant (PAD4 Q346A mutant): 1.9 fold
increase of IC50 with R374Q mutant (PAD4 R374Q mutant): 5.2 fold
increase of IC50 with R639Q mutant (PAD4 R639Q mutant): 2.9 fold
selectivity for PAD4 relative to the other PADs, based on IC50 values (PAD4 [9]): ≥ 4 fold
enhancement in potency relative to F-amidine (IC50) (PAD4 [9]; PAD4): ~ 10 fold
IC50 (PAD4 [9]; read-out: IC50 PAD4): 2.3 ± 0.2 µM

Ac-Threonine-Aspartate-Arginine-NH2 [Ac-TDR-NH2]
substrate quality for PAD1 (PAD1 [10]): excellent substrate
substrate quality for PAD2 (PAD2 [11]): relatively poor
substrate quality for PAD3 (PAD3 [12]): relatively poor
substrate quality for PAD4 (PAD4 [13]): excellent substrate
